Drawing on patent publication US9108951B2, “Substituted 5,6,7,8-tetrahydro-1,6-naphthyridines as factor XIa inhibitors” (BRISTOL-MYERS SQUIBB COMPANY, priority 2011, dated 2015), this text covers Ki for 8 compounds.

The assay concerns the target purified human Factor XIa (Homo sapiens (Human), UniProt P03951). The assay is described as follows: Factor XIa assay (chromogenic substrate hydrolysis, Ki). The format is biochemical. The note with it: synthetic substrate S-2366, 50 mM HEPES pH 7.4. The method, then:
The effectiveness of compounds of the present invention as inhibitors of the coagulation factors XIa, VIIa, IXa, Xa, XIIa, plasma kallikrein or thrombin, can be determined using a relevant purified serine protease, respectively, and an appropriate synthetic substrate. The rate of hydrolysis of the chromogenic or fluorogenic substrate by the relevant serine protease was measured both in the absence and presence of compounds of the present invention. […] A decrease in the rate of absorbance or fluorescence change in the presence of inhibitor is indicative of enzyme inhibition. Such methods are known to one skilled in the art. The results of this assay are expressed as the inhibitory constant, Ki.
Values of Ki were determined by allowing the protease to react with the substrate in the presence of the inhibitor. Reactions were allowed to go for periods of 20-180 minutes (depending on the protease) and the velocities (rate of absorbance or fluorescence change versus time) were measured. The following relationships were used to calculate Ki values: (vo−vs)/vs=I/(Ki(1+S/Km)) for a competitive inhibitor with one binding site; or vs/vo=A+((B−A)/1+((IC50/(I)n))); and Ki=IC50/(1+S/Km) for a competitive inhibitor where: […]

Structures can show the parent of a compound that is named as a salt.

Chain of purified human Factor XIa (P03951 388-625): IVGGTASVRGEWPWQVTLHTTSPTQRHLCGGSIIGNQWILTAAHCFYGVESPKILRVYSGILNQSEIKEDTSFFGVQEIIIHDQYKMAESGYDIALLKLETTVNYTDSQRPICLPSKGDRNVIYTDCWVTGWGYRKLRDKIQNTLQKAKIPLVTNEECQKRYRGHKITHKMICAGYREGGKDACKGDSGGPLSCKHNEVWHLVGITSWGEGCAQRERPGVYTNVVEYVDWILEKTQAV
Chain of purified human Factor XIa (P03951 19-387 partner): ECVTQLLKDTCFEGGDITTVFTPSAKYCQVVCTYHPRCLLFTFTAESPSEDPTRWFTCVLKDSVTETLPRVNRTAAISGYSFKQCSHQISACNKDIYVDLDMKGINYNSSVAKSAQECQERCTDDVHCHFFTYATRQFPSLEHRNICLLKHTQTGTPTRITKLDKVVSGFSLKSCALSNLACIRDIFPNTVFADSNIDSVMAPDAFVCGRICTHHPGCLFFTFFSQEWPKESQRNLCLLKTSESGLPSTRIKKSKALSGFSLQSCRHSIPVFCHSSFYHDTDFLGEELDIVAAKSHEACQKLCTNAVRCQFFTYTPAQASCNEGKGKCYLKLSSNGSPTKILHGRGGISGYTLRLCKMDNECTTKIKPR

On to `NC(=O)c1ccc(-c2nccc3c2CCN(C(=O)/C=C/c2c(-n4cnnn4)ccc(Cl)c2F)C3C(=O)Nc2ccc3cn[nH]c3c2)cc1` (centres unmarked) [Example 23, (E)-5-(4-Carbamoylphenyl)-2-(3-(3-chloro-2-fluoro-6-(1H-tetrazol-1-yl)phenyl)acryloyl)-N-(1H-indazol-6-yl)-1,2,3,4-tetrahydro-2,6-naphthyridine-1-carboxamide, TFA salt], for which the Ki (as a rule, a dissociation constant, usually derived from enzyme kinetics or from competition with a known ligand) is less than 5 nM.
Then `O=C(O)c1ccc(NC(=O)C2c3ccnc(N4CCOCC4)c3CCN2C(=O)/C=C/c2c(-n3cnnn3)ccc(Cl)c2F)cc1` (centres unmarked) [Example 28, (E)-4-(2-(3-(3-Chloro-2-fluoro-6-(1H-tetrazol-1-yl)phenyl)acryloyl)-5-morpholino-1,2,3,4-tetrahydro-2,6-naphthyridine-1-carboxamido)benzoic acid, TFA Salt], with less than 5 nM; and `O=C(Nc1ccc(C2CCCN2)cc1)[C@@H]1c2ccccc2CCN1C(=O)/C=C/c1cc(Cl)ccc1-n1cnnn1` (stereo partly drawn) [Example 40, (1S)-2-((E)-3-(5-Chloro-2-(1H-tetrazol-1-yl)phenyl)acryloyl)-N-(4-(pyrrolidin-2-yl)phenyl)-1,2,3,4-tetrahydroisoquinoline-1-carboxamide, TFA salt], with 6730 nM.
`O=C(O)c1ccc(NC(=O)[C@@H]2c3ccccc3CCN2C(=O)C#Cc2cc(Cl)ccc2-n2cnnn2)cc1` [Example 48, (S)-4-(2-(3-(5-Chloro-2-(1H-tetrazol-1-yl)phenyl)propioloyl)-1,2,3,4-tetrahydroisoquinoline-1-carboxamido)benzoic acid]: the affinity, expressed as Ki, was 7.08 nM.
`CC1(C)CN(C(=O)/C=C/c2cc(Cl)ccc2-n2cnnn2)C(C(=O)Nc2ccc(C(=O)O)cc2)c2c(Br)cccc21` (centres unmarked) [Example 55, (E)-4-(8-bromo-2-(3-(5-chloro-2-(1H-tetrazol-1-yl)phenyl)acryloyl)-4,4-dimethyl-1,2,3,4-tetrahydroisoquinoline-1-carboxamido)benzoic acid]: the Ki was determined as 172 nM. This Ki is about 24-fold higher than that of the compound before.
`CCc1nn(C)c2c1C(C(=O)Nc1ccc(C(=O)O)cc1)N(C(=O)/C=C/c1cc(Cl)ccc1-n1cnnn1)CC2` (centres unmarked) [Example 65, (E)-4-(5-(3-(5-Chloro-2-(1H-tetrazol-1-yl)phenyl)acryloyl)-3-ethyl-1-methyl-4,5,6,7-tetrahydro-1H-pyrazolo[4,3-c]pyridine-4-carboxamido)benzoic acid, TFA salt]: the Ki was determined as 23.3 nM.
Turning to `Cc1[nH]nc2c1C(C(=O)Nc1ccc(C(=O)OC(C)(C)C)cc1)N(C(=O)/C=C/c1c(-n3cnnn3)ccc(Cl)c1F)CC2` (centres unmarked) [Example 76, (E)-tert-butyl 4-(5-(3-(3-chloro-2-fluoro-6-(1H-tetrazol-1-yl)phenyl)acryloyl)-3-methyl-4,5,6,7-tetrahydro-2H-pyrazolo[4,3-c]pyridine-4-carboxamido)benzoate, TFA salt], the Ki is 566 nM. Against the preceding compound, the Ki is about 24-fold higher.
Then `Cc1[nH]nc2c1C(C(=O)Nc1ccc(C(=O)O)cc1)N(C(=O)/C=C/c1c(-n3cnnn3)ccc(Cl)c1F)CC2` (centres unmarked) [Example 77, (E)-4-(5-(3-(3-chloro-2-fluoro-6-(1H-tetrazol-1-yl)phenyl)acryloyl)-3-methyl-4,5,6,7-tetrahydro-2H-pyrazolo[4,3-c]pyridine-4-carboxamido)benzoic acid, TFA salt], with 5.02 nM.
